This note sets out measurements from US20130131075A1, “NEW COMPOUNDS” (Boehringer Ingelheim International GmbH, priority 2009, published 2013).

For the experiment, the target named is T1, cynomolgus BK1-receptor (Macaca fascicularis, UniProt Q3BCU0).
T1 construct: expressed in transfected cells; host or cells: CHO cells (homogenate)
T1 sequence (Q3BCU0 1-352): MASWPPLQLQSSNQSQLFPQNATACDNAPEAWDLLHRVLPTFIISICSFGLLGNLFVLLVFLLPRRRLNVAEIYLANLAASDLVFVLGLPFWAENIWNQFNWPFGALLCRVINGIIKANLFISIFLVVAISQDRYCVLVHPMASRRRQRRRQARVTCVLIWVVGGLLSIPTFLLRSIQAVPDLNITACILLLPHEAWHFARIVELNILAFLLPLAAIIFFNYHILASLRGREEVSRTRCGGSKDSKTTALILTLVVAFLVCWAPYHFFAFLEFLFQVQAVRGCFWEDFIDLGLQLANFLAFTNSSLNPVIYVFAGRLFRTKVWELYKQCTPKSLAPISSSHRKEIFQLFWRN
Description: cynoBK1-receptor binding assay. Conditions: CHO cells expressing cynomolgus BK1-receptor, radioligand kallidine (DesArg10,Leu9); for inhibition at 10 µM: at 10 μgmol/L. As to the method: Description of the Method of Binding the cynoBK1-Receptor
CHO cells that express the cynomolgus BK1-receptor are cultivated in “HAM'S F-12 Medium”. The medium is removed from confluent cultures, the cells are washed with PBS buffer, scraped off or detached using Versene and isolated by centrifuging. Then the cells are homogenised in suspension, the homogenate is centrifuged and resuspended. After the protein content has been determined 200 μl of the homogenate (50 to 250 μg protein/assay) are incubated for 60-180 minutes at ambient temperature with 0.5 to 5.0 nM kallidine (DesArg10,Leu9), [3,4-Prolyl-3,43H(N)] and increasing concentrations of the test substance in a total volume of 250 μl. The incubation is stopped by rapid filtration through GF/B glass fibre filters that have been pre-treated with polyethyleneimine (0.3%). The radioactivity bound to the protein is measured with a TopCount NXT. The radioactivity bound in the presence of 1.0 μM kallidine (DesArg10) is defined as non-specific binding. The concentration binding curve may be analysed using computer-aided non-linear curve fitting to determine the corresponding Ki value for the test substance.
Test results of the cynoBK1-receptor binding assay: […]

Consider `Cc1ccc(Nc2ccc(CNC(=O)C3(NC(=O)c4cncnc4)CC3)nc2)c(C(F)(F)F)c1` [(51)], for which the Ki stood at 38 nM and the inhibition at 10 µM was 112%.

Regarding `O=C(NC1(C(=O)NCc2ccc(Nc3ccc(C(F)(F)F)cc3C(F)(F)F)cn2)CC1)c1cncnc1` [(52)], affinity was put at a Ki of 312 nM and the inhibition at 10 µM is 63%.

Turning to `Cc1cc(Br)ccc1Nc1ccc(CNC(=O)C2(NC(=O)c3cncnc3)CC2)nc1` [(53)], the affinity, expressed as Ki, was 197 nM and the inhibition at 10 µM came to 101%.

`O=C(NC1(C(=O)NCc2ccc(Nc3ccc(Br)cc3C(F)(F)F)cn2)CC1)c1cncnc1` [(54)]: the Ki came out at 3.8 nM and the inhibition at 10 µM is 112%.

For the compound `O=C(NC1(C(=O)NCc2ccc(Nc3ccc(Cl)cc3C(F)(F)F)cn2)CC1)c1cncnc1` [(55)], the Ki came to 3.3 nM and the inhibition at 10 µM was 108%.

For `O=C1CCC(C(=O)N[C@@]2(C(=O)NCc3ccc(Nc4ccccc4C(F)(F)F)cc3)CCOC2)N1` (stereo partly shown) [(56)], the inhibition at 10 µM was 99%.

As to `Nc1ccc(C(=O)N[C@@]2(C(=O)NCc3ccc(Nc4ccccc4C(F)(F)F)cc3)CCOC2)cn1` [(57)], the Ki amounted to 77 nM and the inhibition at 10 µM turned out to be 111%.

In the case of `Cc1ccc(C(=O)N[C@@]2(C(=O)NCc3ccc(Nc4ccccc4C(F)(F)F)cc3)CCOC2)cn1` [(58)], the inhibition at 10 µM is 109%.

In the case of `O=C(Cc1ccccn1)N[C@@]1(C(=O)NCc2ccc(Nc3ccccc3C(F)(F)F)cc2)CCOC1` [(59)], the inhibition at 10 µM was determined as 22%.

For the compound `O=C(N[C@@]1(C(=O)NCc2ccc(Nc3ccccc3C(F)(F)F)cc2)CCOC1)C1CCOC1` (stereo partly shown) [(60)], the inhibition at 10 µM came out at 84%.

As for `O=C(N[C@@]1(C(=O)NCc2ccc(Nc3ccccc3C(F)(F)F)cc2)CCOC1)c1ccnc(Cl)c1` [(61)], the Ki is above 500 nM and the inhibition at 10 µM is 97%.

Turning to `O=C(N[C@@]1(C(=O)NCc2ccc(Nc3ccccc3C(F)(F)F)cc2)CCOC1)c1ccc(=O)[nH]n1` [(62)], the inhibition at 10 µM was 60%.

For `Nc1cc(C(=O)N[C@@]2(C(=O)NCc3ccc(Nc4ccccc4C(F)(F)F)cc3)CCOC2)ccn1` [(63)], the Ki amounted to 118 nM and the inhibition at 10 µM was 108%.

As for `O=C(N[C@@]1(C(=O)NCc2ccc(Nc3ccccc3C(F)(F)F)cc2)CCOC1)c1ccnnc1` [(64)], the affinity, expressed as Ki, was 98 nM and the inhibition at 10 µM is 109%.

Consider `O=C(N[C@@]1(C(=O)NCc2ccc(Nc3ccccc3C(F)(F)F)cc2)CCOC1)C1CCOCC1` [(65)], for which the inhibition at 10 µM was found to be 76%.

Consider `N#C/C(=N\O)C(=O)N[C@@]1(C(=O)NCc2ccc(Nc3ccccc3C(F)(F)F)cc2)CCOC1` [(66)], for which the inhibition at 10 µM was found to be 81%.

For `O=C(N[C@@]1(C(=O)NCc2ccc(Nc3ccccc3C(F)(F)F)cc2)CCOC1)c1cccc(Cl)n1` [(67)], the inhibition at 10 µM was 63%.

`COc1ccc(C(=O)N[C@@]2(C(=O)NCc3ccc(Nc4ccccc4C(F)(F)F)cc3)CCOC2)o1` [(68)]: the inhibition at 10 µM worked out at 78%.

Consider `O=C1CCCC(C(=O)N[C@@]2(C(=O)NCc3ccc(Nc4ccccc4C(F)(F)F)cc3)CCOC2)C1` (stereo partly shown) [(69)], for which the inhibition at 10 µM was 42%.

For `O=C(N[C@@]1(C(=O)NCc2ccc(Nc3ccccc3C(F)(F)F)cc2)CCOC1)c1cccc(O)n1` [(70)], the inhibition at 10 µM turned out to be 107%.

As to `CN1CC(C(=O)N[C@@]2(C(=O)NCc3ccc(Nc4ccccc4C(F)(F)F)cc3)CCOC2)CC1=O` (stereo partly shown) [(71)], the inhibition at 10 µM was found to be 80%.

With `Nc1cccc(C(=O)N[C@@]2(C(=O)NCc3ccc(Nc4ccccc4C(F)(F)F)cc3)CCOC2)n1` [(72)], the Ki was 416 nM and the inhibition at 10 µM turned out to be 89%.

As for `O=C(N[C@@]1(C(=O)NCc2ccc(Nc3ccccc3C(F)(F)F)cc2)CCOC1)c1cccnn1` [(74)], the inhibition at 10 µM amounted to 56%.

As to `COC1CC(C(=O)N[C@@]2(C(=O)NCc3ccc(Nc4ccccc4C(F)(F)F)cc3)CCOC2)C1` (stereo partly shown) [(75)], the inhibition at 10 µM stood at 71%.

For `O=C1CCC(C(=O)N[C@@]2(C(=O)NCc3ccc(Nc4ccccc4C(F)(F)F)cc3)CCOC2)CN1` (stereo partly shown) [(76)], the inhibition at 10 µM is 80%.

`Cc1ncncc1C(=O)N[C@@]1(C(=O)NCc2ccc(Nc3ccccc3C(F)(F)F)cc2)CCOC1` [(77)]: the inhibition at 10 µM amounted to 96%.

For the compound `O=C1CCC(C(=O)N[C@@]2(C(=O)NCc3ccc(Nc4ccccc4C(F)(F)F)cc3)CCOC2)C1` (stereo partly shown) [(78)], the inhibition at 10 µM came out at 73%.

Consider `COc1cc(C(=O)N[C@@]2(C(=O)NCc3ccc(Nc4ccccc4C(F)(F)F)cc3)CCOC2)ccn1` [(79)], for which affinity was put at a Ki of 292 nM and the inhibition at 10 µM was determined as 104%.

For the compound `Cc1ncc(C(=O)N[C@@]2(C(=O)NCc3ccc(Nc4ccccc4C(F)(F)F)cc3)CCOC2)c(C)n1` [(80)], the inhibition at 10 µM worked out at 88%.

With `COc1ncc(C(=O)N[C@@]2(C(=O)NCc3ccc(Nc4ccccc4C(F)(F)F)cc3)CCOC2)cn1` [(81)], the inhibition at 10 µM came out at 113%.

Regarding `CNc1ncc(C(=O)N[C@@]2(C(=O)NCc3ccc(Nc4ccccc4C(F)(F)F)cc3)CCOC2)cn1` [(82)], the inhibition at 10 µM is 107%.

As to `Cc1ncc(C(=O)N[C@@]2(C(=O)NCc3ccc(Nc4ccccc4C(F)(F)F)cc3)CCOC2)cn1` [(83)], the Ki amounted to 9 nM and the inhibition at 10 µM turned out to be 113%.

Take `Cn1ccc(C(=O)N[C@@]2(C(=O)NCc3ccc(Nc4ccccc4C(F)(F)F)cc3)CCOC2)cc1=O` [(84)]: the Ki was 90 nM and the inhibition at 10 µM turned out to be 104%.

Turning to `O=C(N[C@@]1(C(=O)NCc2ccc(Nc3ccccc3C(F)(F)F)cc2)CCOC1)c1cnco1` [(85)], the inhibition at 10 µM was 93%.

With `O=C(N[C@@]1(C(=O)NCc2ccc(Nc3ccccc3C(F)(F)F)cc2)CCOC1)c1ccnc(O)c1` [(86)], the Ki was 100 nM and the inhibition at 10 µM worked out at 108%.

For `O=C(N[C@@]1(C(=O)NCc2ccc(Nc3ccccc3C(F)(F)F)cc2)CCOC1)c1cncc(O)c1` [(87)], the inhibition at 10 µM was 112%.

For `Cn1cc(C(=O)N[C@@]2(C(=O)NCc3ccc(Nc4ccccc4C(F)(F)F)cc3)CCOC2)nn1` [(88)], the inhibition at 10 µM worked out at 80%.

Turning to `O=C(N[C@@]1(C(=O)NCc2ccc(Nc3ccccc3C(F)(F)F)cc2)CCOC1)c1cncs1` [(89)], the inhibition at 10 µM worked out at 96%.

As for `O=C(N[C@@]1(C(=O)NCc2ccc(Nc3ccccc3C(F)(F)F)cc2)CCOC1)c1cnc(O)nc1` [(90)], affinity was put at a Ki of 135 nM and the inhibition at 10 µM was 109%.

In the case of `CC(C(=O)N[C@@]1(C(=O)NCc2ccc(Nc3ccccc3C(F)(F)F)cc2)CCOC1)C(F)(F)F` (stereo partly shown) [(91)], the inhibition at 10 µM stood at 100%.

For `COc1cncc(C(=O)N[C@@]2(C(=O)NCc3ccc(Nc4ccccc4C(F)(F)F)cc3)CCOC2)c1` [(92)], affinity was put at a Ki of 62 nM and the inhibition at 10 µM was determined as 110%.

Take `O=C(N[C@@]1(C(=O)NCc2ccc(Nc3ccccc3C(F)(F)F)cc2)CCOC1)c1ccoc1` [(93)]: the inhibition at 10 µM was 84%.

Take `O=C(N[C@@]1(C(=O)NCc2ccc(Nc3ccccc3C(F)(F)F)cc2)CCOC1)c1ccco1` [(94)]: the inhibition at 10 µM came to 57%.

With `O=C(N[C@@]1(C(=O)NCc2ccc(Nc3ccccc3C(F)(F)F)cc2)CCOC1)c1ccncc1` [(95)], the inhibition at 10 µM stood at 86%.

`O=C(N[C@@]1(C(=O)NCc2ccc(Nc3ccccc3C(F)(F)F)cc2)CCOC1)c1cnccn1` [(96)]: the inhibition at 10 µM was 78%.

Compound `O=C(N[C@@]1(C(=O)NCc2ccc(Nc3ccccc3C(F)(F)F)cc2)CCOC1)c1cccc(O)c1` [(97)] came in with a Ki of 132 nM.

On to `O=C(N[C@@]1(C(=O)NCc2ccc(Nc3ccccc3C(F)(F)F)cc2)CCOC1)c1ccc(O)nc1` [(98)], for which the affinity, expressed as Ki, was 417 nM and the inhibition at 10 µM is 103%.

As for `COc1ccc(C(=O)N[C@@]2(C(=O)NCc3ccc(Nc4ccccc4C(F)(F)F)cc3)CCOC2)cc1` [(99)], the inhibition at 10 µM was determined as 96%.

On to `COc1cccc(C(=O)N[C@@]2(C(=O)NCc3ccc(Nc4ccccc4C(F)(F)F)cc3)CCOC2)c1` [(100)], for which the inhibition at 10 µM was determined as 103%.

`O=C(N[C@@]1(C(=O)NCc2ccc(Nc3ccccc3C(F)(F)F)cc2)CCOC1)c1cc(O)cc(O)c1` [(102)]: the Ki is 87 nM and the inhibition at 10 µM was 105%.

Turning to `COc1cc(OC)cc(C(=O)N[C@@]2(C(=O)NCc3ccc(Nc4ccccc4C(F)(F)F)cc3)CCOC2)c1` [(103)], the inhibition at 10 µM is 87%.

`O=C(Cc1cccnc1)N[C@@]1(C(=O)NCc2ccc(Nc3ccccc3C(F)(F)F)cc2)CCOC1` [(104)]: the inhibition at 10 µM amounted to 54%.

In the case of `Nc1cncc(C(=O)N[C@@]2(C(=O)NCc3ccc(Nc4ccccc4C(F)(F)F)cc3)CCOC2)c1` [(105)], the affinity corresponds to a Ki of 20 nM and the inhibition at 10 µM turned out to be 113%.

For `O=C(N[C@@]1(C(=O)NCc2ccc(Nc3ccccc3C(F)(F)F)cc2)CCOC1)c1cc[nH]n1` [(106)], the inhibition at 10 µM amounted to 69%.

In general, Ki refers to a dissociation constant, usually derived from enzyme kinetics or from competition with a known ligand. Read a high Ki as weaker binding. In general, inhibition refers to the drop in the measured response relative to a control, in per cent.
